In ChEMBL document CHEMBL5331051, “Cationic, amphipathic small molecules based on a triazine-piperazine-triazine scaffold as a new class of antimicrobial agents” (Eur J Med Chem, 2022):
The source made the active and inactive calls. The calls are words filed in the database; no cut-off is given here.

Experiments:
Escherichia coli = test: Antibacterial activity against Escherichia coli assessed as bacterial growth inhibition measured at 18 to 24 hrs in presence of CDFA based microdilution assay; format: functional; conditions: time 18-24 hrs
Pseudomonas aeruginosa [1] = test: Bactericidal activity against multidrug-resistant Pseudomonas aeruginosa CCARM 2095 measured after 24 hrs by time-kill kinetics assay; format: functional, organism-based
Pseudomonas aeruginosa [2] = test: Bacteriostatic activity against multidrug-resistant Pseudomonas aeruginosa CCARM 2095 measured after 24 hrs by time-kill kinetics assay; format: functional, organism-based
[3] = Drug localization in Escherichia coli KCTC 1682 cytoplasm incubated for 0.5 hrs by CDFA based confocal laser scanning microscopic analysis; format: ADME, subcellular
Pseudomonas aeruginosa [4] = test: Antibiofilm activity against multidrug-resistant Pseudomonas aeruginosa assessed as bacterial growth inhibition at 1 ug/ml relative to control; format: functional
Staphylococcus aureus [5] = test: Antibacterial activity against multidrug-resistant Staphylococcus aureus CCARM 3089 strain assessed as fractional inhibitory concentration index in presence of ciprofloxacin by checkerboard assay; format: functional
Pseudomonas aeruginosa [6] = test: Additive antibacterial activity against multidrug-resistant Pseudomonas aeruginosa CCARM 2095 strain assessed as bacterial growth inhibition by checkerboard assay; format: functional
Staphylococcus aureus [7] = test: Antibacterial activity against multidrug-resistant Staphylococcus aureus CCARM 3089 strain assessed as ciprofloxacin fractional inhibitory concentration by checkerboard assay; format: functional
Pseudomonas aeruginosa [8] = test: Additive antibacterial activity against multidrug-resistant Pseudomonas aeruginosa CCARM 2095 strain assessed as fractional inhibitory concentration index in presence of chloramphenicol by checkerboard assay; format: functional
Staphylococcus aureus [9] = test: Additive antibacterial activity against methicillin-resistant Staphylococcus aureus CCARM 3089 strain assessed as bacterial growth inhibition in presence of oxacillin by checkerboard assay; format: functional
Staphylococcus aureus [10] = test: Antibacterial activity against methicillin-resistant Staphylococcus aureus CCARM 3089 strain assessed as bacterial growth inhibition in presence of ciprofloxacin by checkerboard assay; format: functional

Compound | MIC (Escherichia coli) | Activity (Pseudomonas aeruginosa [1]) | Activity (Pseudomonas aeruginosa [2]) | Drug uptake [3] | inhibition at 1 µg/mL (Pseudomonas aeruginosa [4]) | fractional inhibitory concentration index (FICI) (Staphylococcus aureus [5]) | MIC (Pseudomonas aeruginosa [6]) | FIC (Staphylococcus aureus [7]) | fractional inhibitory concentration index (FICI) (Pseudomonas aeruginosa [8]) | MIC (Staphylococcus aureus [9]) | MIC (Staphylococcus aureus [10])
NCCN(CCN)c1nc(NCc2ccccc2)nc(N2CC(Cc3ccccc3)N(c3nc(NCc4ccccc4)nc(N(CCN)CCN)n3)CC2Cc2ccccc2)n1 (stereo unspecified) | 8 µg/mL | inactive | inactive | Active | 50% | – | – | – | – | – | –
N=C(N)NCCNc1nc(NCCNC(=N)N)nc(N2CC(Cc3ccccc3)N(c3nc(NCCNC(=N)N)nc(NCCNC(=N)N)n3)CC2Cc2ccccc2)n1 (stereo unspecified) | – | – | – | – | – | 1.25 | 16 µg/mL | 0.25 | 0.75 | 4 µg/mL | 8 µg/mL
